Values after ≈ are worked out from the molar mass of the structure shown.
How the values were obtained:
Type in all cases: cell-based
E. coli 31 = test: In vitro antibacterial activity, two-fold agar-plate dilution method (MIC), E. coli 31; conditions: Escherichia coli, heart infusion agar, 10^6 viable cells per ml, 37° C., 20 hours, read-out: MIC (minimal inhibitory concentration)
Experimental: (§1) In vitro antibacterial activity was determined by the two-fold agar-plate dilution method as described below.
(§2) One loopful of an overnight culture of each test strain in Trypticase-soy broth (10^6 viable cells per ml) was streaked on heart infusion agar (HI-agar) containing graded concentrations of representative test compound, and the minimal inhibitory concentration (MIC) was expressed in terms of μg/ml after incubation at 37° C. for 20 hours.

P. mirabilis 1 = test: In vitro antibacterial activity, two-fold agar-plate dilution method (MIC), P. mirabilis 1; conditions: Proteus mirabilis, heart infusion agar, 10^6 viable cells per ml, 37° C., 20 hours, read-out: MIC (minimal inhibitory concentration)
Experimental: as §1, §2

P. vulgaris IAM1025 = test: In vitro antibacterial activity, two-fold agar-plate dilution method (MIC), P. vulgaris IAM1025; conditions: Proteus vulgaris, heart infusion agar, 10^6 viable cells per ml, 37° C., 20 hours, read-out: MIC (minimal inhibitory concentration)
Experimental: as §1, §2

Row | MIC (E. coli 31) | MIC (P. mirabilis 1) | MIC (P. vulgaris IAM1025) | SMILES
1 | < 0.025 µg/mL | 0.05 µg/mL (≈ 0.0974 µM) | 0.05 µg/mL (≈ 0.0974 µM) | Cn1ccc[n+]1CC1=C(C(=O)[O-])N2C(=O)[C@@H](NC(=O)/C(=N\OC(F)F)c3csc(N)n3)[C@H]2SC1 [Compound A, 7β-[2-(2-Aminothiazol-4-yl)-2-(difluoromethoxyimino)acetamido]-3-(2-methyl-1-pyrazolio)methyl-3-cephem-4-carboxylate (syn isomer)]
2 | 0.05 µg/mL (≈ 0.0944 µM) | 0.2 µg/mL (≈ 0.378 µM) | 0.05 µg/mL (≈ 0.0944 µM) | Cn1ccc[n+]1CC1=C(C(=O)[O-])N2C(=O)[C@@H](NC(=O)/C(=N\OC3C=CCC3)c3csc(N)n3)[C@H]2SC1 (stereo partly drawn) [Compound B, 7β-[2-(2-Aminothiazol-4-yl)-2-(2-cyclopenten-1-yloxyimino)acetamido]-3-(2-methyl-1-pyrazolio)methyl-3-cephem-4-carboxylate (syn isomer)]
3 | ≤ 0.025 µg/mL | 0.05 µg/mL (≈ 0.0987 µM) | ≤ 0.025 µg/mL | CO/N=C(\C(=O)N[C@@H]1C(=O)N2C(C(=O)[O-])=C(C[n+]3cc(C)c(N)n3C)CS[C@H]12)c1csc(N)n1 [Compound C, 7β-[2-(2-Aminothiazol-4-yl)-2-methoxyiminoacetamido]-3-(3-amino-2,4-dimethyl-1-pyrazolio)methyl-3-cephem-4-carboxylate (syn isomer)]
4 | ≤ 0.025 µg/mL | 0.05 µg/mL (≈ 0.0922 µM) | ≤ 0.025 µg/mL | Cc1c[n+](CC2=C(C(=O)[O-])N3C(=O)[C@@H](NC(=O)/C(=N\OC(F)F)c4csc(N)n4)[C@H]3SC2)n(C)c1N [Compound D, 7β-[2-(2-Aminothiazol-4-yl)-2-(difluoromethoxyimino)acetamido]-3-(3-amino-2,4-dimethyl-1-pyrazolio)methyl-3-cephem-4-carboxylate (syn isomer)]

From patent US5194432A, “Cephem compounds” (Fujisawa Pharmaceutical Co., Ltd., priority 1985, dated 1993)
